Values joined by “and” are separate entries in the source; they are usually repeats but may differ in a detail not shown here. Equal entries are not always repeated.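 Each compound was tested at five concentrations against cells in 96-well plates for 48 hours. At the GI50, growth is halved. TGI: concentration producing complete growth inhibition.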
Assays:
Assay in all cases: NCI-60 cell line screen, 48 h
[1] = tested on: MDA-N
[2] = tested on: DMS 114 small cell lung
[3] = tested on: SNB-78 CNS
[4] = tested on: M19-MEL melanoma
[5] = tested on: XF 498 CNS
[6] = tested on: LXFL 529 NSCLC
[7] = tested on: KM20L2 colon
[8] = tested on: HOP-18 NSCLC
[9] = tested on: RXF-631 renal

| Structure (SMILES) | TGI [1] | TGI [2] | TGI [3] [µM] | TGI [4] | TGI [5] | TGI [6] | TGI [7] [µM] | TGI [9] [µM] | TGI [8] [µM] | also measured |
| --- | --- | --- | --- | --- | --- | --- | --- | --- | --- | --- |
| COc1cc(C2=N/C(=C/c3cccs3)C(=O)O2)cc(OC)c1OC | > 100 µM | – | – | – | – | – | – | – | – | – |
| COC(=O)C12OCC34C(CC5C(C)C6=CC(=O)OC6=CC5(C)C3C(O)C1O)OC(=O)C(O)C24 (stereo not drawn) | – | 0.527 µM and 4.35 µM | 8.31 | 0.723 µM and 2.2 µM | 0.291 µM and 1.93 µM | 0.737 µM and 1.36 µM | 30.9 | – | – | GI50 [2]: 0.0441 µM; GI50 [3]: 0.402 µM; GI50 [4]: 0.133 µM; GI50 [5]: 0.0609 µM and 0.344 µM; GI50 [6]: 0.0379 µM; GI50 [7]: 0.638 µM; GI50 [8]: 0.929 µM |
| O=NNc1ccc(Sc2ccc(NN=O)cn2)nc1 | > 100 µM | – | – | – | – | – | – | – | – | – |
| CC(C)(C)c1ccc(OCCOCCOc2ccc(C(C)(C)C)cc2S(=O)(=O)Nc2ccc([N+](=O)[O-])cc2)c(S(=O)(=O)Nc2ccc([N+](=O)[O-])cc2)c1 | – | > 100 µM | > 100 | > 100 µM | – | – | – | > 100 | > 100 | – |
| CC(C(N)C(=O)NC(C(=O)O)C1OC(n2ccc(=O)[nH]c2=O)C(O)C1O)C(O)c1ccc(O)cn1 (stereo not drawn) | > 100 µM | – | – | – | – | – | – | – | – | – |
| O=C(CCn1[nH]c(=O)c(Cl)c(Cl)c1=O)NNC(=O)C[n+]1ccccc1 | – | > 100 µM | – | > 100 µM | > 100 µM | > 100 µM | > 100 | > 100 | > 100 | – |
| Nc1n[n+](-c2ccccc2)no1 | – | 89.8 µM | > 100 | > 100 µM | – | > 100 µM | > 100 | – | – | – |
| COc1ccc2oc(C(=O)O)c3c2c1CCC3CCC(=O)O (stereo not drawn) | – | > 100 µM | > 100 | > 100 µM | > 100 µM | > 100 µM | – | > 100 | – | – |
| CSC(=S)OC1CC(n2cnc3c(NC(=O)c4ccccc4)ncnc32)OC1CO[Si](C)(C)C(C)(C)C (stereo not drawn) | 47.4 µM | – | – | – | – | – | – | – | – | – |
| O=C1OC(=O)C2CCCC3CCCC1C32 (stereo not drawn) | > 100 µM | – | – | – | – | – | – | – | – | – |
| C/C=C(\CCOS(=O)(=O)c1ccc(C)cc1)[Si](C)(C)C | – | > 100 µM | > 100 | > 100 µM | > 100 µM | > 100 µM | > 100 | > 100 | > 100 | – |
| Cc1cccc2c1CCC21OC(=O)c2c1ccc1ccccc21 (stereo not drawn) | – | 72.4 µM | – | > 100 µM | – | > 100 µM | > 100 | 50.2 | > 100 | – |
| C/C(=N\NC(=S)SCc1ccccc1)c1ccccn1 | 15.3 µM | – | – | – | – | – | – | – | – | – |
| CCOC(=O)c1cnc2c(ccc3ncccc32)c1NCCCN(CC)CC | – | – | > 100 | > 100 µM | > 100 µM | > 100 µM | > 100 | – | > 100 | – |
| CC(=O)[CH-]C(=O)c1ccccc1.CC(=O)[CH-]C(=O)c1ccccc1.Cc1cc([O-])ccc1Cl.Cc1cc([O-])ccc1Cl.[Ti+4] | – | – | – | – | – | > 100 µM | 84.9 | – | > 100 | GI50 [6]: 22.1 µM; GI50 [7]: 28.3 µM; GI50 [8]: 27.8 µM |
| O=C1C2CCN(CC2)C1(CO)CO | > 100 µM | – | – | – | – | – | – | – | – | – |
| CC1=C(O)/C(=C/C(C)CCC/C(C)=C/C=C/C(C)CCCc2ccoc2)OC1=O (stereo not drawn) | – | > 100 µM | > 100 | > 100 µM | 34.6 µM | > 100 µM | > 100 | – | – | – |
| COc1ccc2c3c(c(C(=O)c4ccccc4)oc13)CCC2 | – | > 100 µM | > 100 | > 100 µM | > 100 µM | > 100 µM | > 100 | > 100 | > 100 | – |
| CCOC(=O)C(CC/C=C\c1ccccc1)N1CCC[C@H]1C(=O)OC (stereo partly drawn) | – | > 100 µM | > 100 | > 100 µM | > 100 µM | > 100 µM | > 100 | – | > 100 | – |
| N#CC1(C#N)C2C=CC(c3coc4cccc2c34)C1(C#N)C#N (stereo not drawn) | – | 9.98 µM | 43.1 | 8.86 µM | 15.3 µM | 21.2 µM | 35.5 | – | 30.4 | – |
| CC(=O)O[C@@]1(C)[C@@H](C)C(=O)O[C@@H]2CCN3CC=C(COC(=O)[C@]1(C)O)[C@H]23 | – | > 100 µM | – | > 100 µM | – | > 100 µM | > 100 | – | – | – |
| Cc1cccc(C(C)(C)C)c1NC(=O)CCc1nc(=S)[nH][nH]1 | – | > 100 µM | > 100 | > 100 µM | > 100 µM | > 100 µM | > 100 | > 100 | – | – |
| Cn1c(N)nc(=O)c2c1N(C1OC(CO)C(O)C1O)CN2Cc1ccccc1 (stereo not drawn) | – | > 100 µM | > 100 | > 100 µM | > 100 µM | > 100 µM | > 100 | > 100 | > 100 | – |
| CSc1snc2sc3c(Cl)nnnc3c12 | – | 29 µM | 38.1 | 24.1 µM | 27.4 µM | 4.85 µM | 30.9 | 38.4 | 33.9 | – |
| O=C(O/N=C1/CCC/C1=C\c1ccccc1)c1ccc(Cl)c(Cl)c1 | – | > 100 µM | > 100 | > 100 µM | – | > 100 µM | > 100 | > 100 | > 100 | – |
| CC(C)=CCC/C(C)=C\CCC1(C)OC(=O)C2CC21 (stereo not drawn) | > 100 µM and 85.1 µM | – | – | – | – | – | – | – | – | GI50 [1]: > 100 µM and 23.8 µM |
| O=C(CC(=O)c1cccc2ccccc12)C(=O)NC1C2CC3CC(C2)CC1C3 (stereo not drawn) | – | > 100 µM | > 100 | > 100 µM | > 100 µM | > 100 µM | > 100 | > 100 | > 100 | – |
| Cc1ccc(NS(=O)(=O)c2cccc(C#N)c2)c2[nH]cc(C#N)c12 | > 91.6 µM | – | – | – | – | – | – | – | – | GI50 [1]: 4.1 µM |
